According to patent publication US20050112573A1, “Method of detecting toxic substance” (priority 2001, published 2005):

System: yeast genes (level of expressed mRNA)
Test: DNA chip analysis of expressed mRNA of yeast genes after 2 h culture with a toxic chemical substance
Assay type: cell-based, Saccharomyces cerevisiae S288C
In short: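 S. cerevisiae S288C in YPD at 25 °C was exposed at log phase for 2 h to a growth-inhibiting, non-lethal concentration of the chemical. Poly(A) mRNA was reverse-transcribed with Cy3- or Cy5-dUTP and hybridized to a whole-genome yeast DNA chip (65 °C, >12 h). Values are fluorescence ratios versus untreated cells.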

Substance: γ-hexachlorocyclohexane [(7)]
- The level of expressed mRNA in the presence of chemical substance/The level of expressed mRNA in the absence of chemical substance (yeast gene YKL096W): 0.2
- The level of expressed mRNA in the presence of chemical substance/The level of expressed mRNA in the absence of chemical substance (yeast gene YKL139W): 2.6
- The level of expressed mRNA in the presence of chemical substance/ (yeast gene YKL151C, ratio to control without chemical substance, 2 h culture): 5.6
- The level of expressed mRNA in the presence of chemical substance/ (yeast gene YKL153W, ratio to control without chemical substance, 2 h culture): 1.1
- The level of expressed mRNA in the presence of chemical substance/The level of expressed mRNA in the absence of chemical substance (yeast gene YKL165C): 2.1
- The level of expressed mRNA in the presence of chemical substance/The level of expressed mRNA in the absence of chemical substance (yeast gene YKL193C): 2.1
- The level of expressed mRNA in the presence of chemical substance/ (yeast gene YKL195W, ratio to control without chemical substance, 2 h culture): 2.1
- The level of expressed mRNA in the presence of chemical substance/in the absence of chemical substance (yeast gene YKR009C): 1.0
- The level of expressed mRNA in the presence of chemical substance/The level of expressed mRNA in the absence of chemical substance (yeast gene YKR014C): 1.7
- The level of expressed mRNA in the presence of chemical substance/ (yeast gene YKR091W, ratio to control without chemical): 1.3
- The level of expressed mRNA in the presence of chemical substance/ (yeast gene YLR054C, ratio to control without chemical substance, 2 h culture): 1.1
- The level of expressed mRNA in the presence of chemical substance/The level of expressed mRNA in the absence of chemical substance (yeast gene YLR120C): 1.5
- The level of expressed mRNA in the presence of chemical substance/The level of expressed mRNA in the absence of chemical substance (yeast gene YLR136C): 3.9
- The level of expressed mRNA in the presence of chemical substance/ (yeast gene YLR149C, ratio to control without chemical substance, 2 h culture): 1.6
- The level of expressed mRNA in the presence of chemical substance/ (yeast gene YLR152C, ratio to control without chemical substance, 2 h culture): 1.4
- The level of expressed mRNA in the presence of chemical substance/The level of expressed mRNA in the absence of chemical substance (yeast gene YLR178C): 3.3
- The level of expressed mRNA in the presence of chemical substance/ (yeast gene YLR194C, ratio to control without chemical): 1.0
- The level of expressed mRNA in the presence of chemical substance/The level of expressed mRNA in the absence of chemical substance (yeast gene YLR250W): 1.9
- The level of expressed mRNA in the presence of chemical substance/ (yeast gene YLR324W, ratio to control without chemical substance, 2 h culture): 1.0
- The level of expressed mRNA in the presence of chemical substance/The level of expressed mRNA in the absence of chemical substance (yeast gene YLR327C): 5.7
- The level of expressed mRNA in the presence of chemical substance/ (yeast gene YLR350W, ratio to control without chemical substance, 2 h culture): 1.2
- The level of expressed mRNA in the presence of chemical substance/in the absence of chemical substance (yeast gene YLR351C): 1.4
- The level of expressed mRNA in the presence of chemical substance/The level of expressed mRNA in the absence of chemical substance (yeast gene YLR356W): 1.1
- The level of expressed mRNA in the presence of chemical substance/The level of expressed mRNA in the absence of chemical substance (yeast gene YLR362W): 1.9
- The level of expressed mRNA in the presence of chemical substance/in the absence of chemical substance (yeast gene YLR375W): 0.9
- The level of expressed mRNA in the presence of chemical substance/ (yeast gene YLR387C, ratio to control without chemical substance, 2 h culture): 1.1
- The level of expressed mRNA in the presence of chemical substance/The level of expressed mRNA in the absence of chemical substance (yeast gene YLR391W): 0.7
- The level of expressed mRNA in the presence of chemical substance/The level of expressed mRNA in the absence of chemical substance (yeast gene YLR429W): 1.3
- The level of expressed mRNA in the presence of chemical substance/ (yeast gene YLR460C, ratio to control without chemical substance, 2 h culture): 1.1
- The level of expressed mRNA in the presence of chemical substance/ (yeast gene YML117W, ratio to control without chemical substance, 2 h culture): 0.7
- The level of expressed mRNA in the presence of chemical substance/The level of expressed mRNA in the absence of chemical substance (yeast gene YMR004W): 1.2
- The level of expressed mRNA in the presence of chemical substance/ (yeast gene YMR009W, ratio to control without chemical substance, 2 h culture): 1.9
- The level of expressed mRNA in the presence of chemical substance/ (yeast gene YMR067C, ratio to control without chemical substance, 2 h culture): 1.2
- The level of expressed mRNA in the presence of chemical substance/ (yeast gene YMR090W, ratio to control without chemical substance, 2 h culture): 2.7
- The level of expressed mRNA in the presence of chemical substance/The level of expressed mRNA in the absence of chemical substance (yeast gene YMR094W): 0.8
- The level of expressed mRNA in the presence of chemical substance/ (yeast gene YMR095C, ratio to control without chemical): 1.2
- The level of expressed mRNA in the presence of chemical substance/ (yeast gene YMR097C, ratio to control without chemical substance, 2 h culture): 1.5
- The level of expressed mRNA in the presence of chemical substance/ (yeast gene YMR102C, ratio to control without chemical substance, 2 h culture): 1.8
- The level of expressed mRNA in the presence of chemical substance/The level of expressed mRNA in the absence of chemical substance (yeast gene YMR104C): 1.5
- The level of expressed mRNA in the presence of chemical substance/ (yeast gene YMR107W, ratio to control without chemical substance, 2 h culture): 1.2
- The level of expressed mRNA in the presence of chemical substance/ (yeast gene YMR180C, ratio to control without chemical substance, 2 h culture): 1.7
- The level of expressed mRNA in the presence of chemical substance/ (yeast gene YMR184W, ratio to control without chemical substance, 2 h culture): 1.6
- The level of expressed mRNA in the presence of chemical substance/ (yeast gene YMR191W, ratio to control without chemical substance, 2 h culture): 2.0
- The level of expressed mRNA in the presence of chemical substance/The level of expressed mRNA in the absence of chemical substance (yeast gene YMR226C): 1.8
- The level of expressed mRNA in the presence of chemical substance/in the absence of chemical substance (yeast gene YMR267W): 1.2
- The level of expressed mRNA in the presence of chemical substance/The level of expressed mRNA in the absence of chemical substance (yeast gene YMR275C): 0.8
- The level of expressed mRNA in the presence of chemical substance/The level of expressed mRNA in the absence of chemical substance (yeast gene YMR276W): 1.1
- The level of expressed mRNA in the presence of chemical substance/in the absence of chemical substance (yeast gene YMR278W): 1.8
- The level of expressed mRNA in the presence of chemical substance/in the absence of chemical substance (yeast gene YMR293C): 1.2
- The level of expressed mRNA in the presence of chemical substance/ (yeast gene YMR295C, ratio to control without chemical substance, 2 h culture): 1.3
- The level of expressed mRNA in the presence of chemical substance/The level of expressed mRNA in the absence of chemical substance (yeast gene YMR314W): 1.1
- The level of expressed mRNA in the presence of chemical substance/ (yeast gene YMR316W, ratio to control without chemical substance, 2 h culture): 2.0
- The level of expressed mRNA in the presence of chemical substance/The level of expressed mRNA in the absence of chemical substance (yeast gene YNL006W): 1.6
- The level of expressed mRNA in the presence of chemical substance/The level of expressed mRNA in the absence of chemical substance (yeast gene YNL007C): 1.2
- The level of expressed mRNA in the presence of chemical substance/ (yeast gene YNL044W, ratio to control without chemical substance, 2 h culture): 0.9
